Biological target: mTOR/GbL/Raptor (mTORC1) (Homo sapiens, UniProt P42345)
Assay: mTOR/GbL/Raptor (mTORC1) ELISA assay
Format: biochemical
Settings: phosphorylation of 4E-BP1; 0.2 nM mTORC1, 10 μM ATP; read-out: IC50 in this assay (mTORC1 ELISA)
Method: The measurement of mTORC1 enzyme activity was performed in an ELISA assay format following the phosphorylation of 4E-BP1 protein. All experiments were performed in the 384-well format. Generally, 0.5 μL DMSO containing varying concentrations of the test Compound was mixed with 15 μL enzyme solution. Kinase reactions were initiated with the addition of 15 μL of substrates-containing solution. The assay conditions were as follows; 0.2 nM mTORC1, 10 μM ATP and 50 nM NHis-tagged 4E-BP1 in 20 mM Hepes, pH 7.2, 1 mM DTT, 50 mM NaCl, 10 mM MnCl2, 0.02 mg/mL BSA, 0.01% CHAPS, 50 mM β-glycerophosphate. Following an incubation of 120 minutes at ambient temperature, 20 μL of the reaction volume was transferred to a Ni-Chelate-coated 384-well plate. The binding step of the 4E-BP1 protein proceeded for 60 minutes, followed by washing 4 times each with 50 μL of Tris-buffered saline solution (TBS). Anti-phospho-4E-BP1 rabbit-IgG (20 μL, 1:5000) in 5% BSA-TBST (0.2% Tween-20 in TBS) was added and further incubated for 60 minutes. Incubation with a secondary HRP-tagged anti-IgG was similarly performed after washing off the primary antibody (4 washes of 50 μL). Following the final wash step with TBST, 20 μL of SuperSignal ELISA Femto (Pierce Biotechnology) was added and the luminescence measured using an EnVision plate reader.

IC50 | SMILES
250 to 1000 nM | COc1ccc2c(N3CCOc4ccc(-c5cnc(N)c(S(=O)(=O)N6CC[C@H](N)C6)c5)cc4C3)ncnc2c1 [Example 454, 3-{[(3S)-3-aminopyrrolidin-1-yl]sulfonyl}-5-{4-[7-(methyloxy)quinazolin-4-yl]-2,3,4,5-tetrahydro-1,4-benzoxazepin-7-yl}pyridin-2-amine]
10 to 50 nM | CC1(C)CCc2ncnc(N3CCOc4ccc(-c5cnc(N)c(S(=O)(=O)CC(O)CO)c5)cc4C3)c2C1 (stereo not shown) [Example 431, 3-({2-amino-5-[4-(6,6-dimethyl-5,6,7,8-tetrahydroquinazolin-4-yl)-2,3,4,5-tetrahydro-1,4-benzoxazepin-7-yl]pyridin-3-yl}sulfonyl)propane-1,2-diol]
50 to 250 nM | CC1(C)CCc2ncnc(N3CCOc4ccc(-c5cnc(N)c(S(=O)(=O)N6CCC(O)CC6)c5)cc4C3)c2C1 [Example 317, 1-({2-amino-5-[4-(6,6-dimethyl-5,6,7,8-tetrahydroquinazolin-4-yl)-2,3,4,5-tetrahydro-1,4-benzoxazepin-7-yl]pyridin-3-yl}sulfonyl)piperidin-4-ol]
250 to 1000 nM | COc1c(OCC2CC2)ccc2c(N3CCOc4ccc(-c5ccc6nc(C)[nH]c6c5)cc4C3)ncnc12 [Example 168, 4-{7-[(cyclopropylmethyl)oxy]-8-(methyloxy)quinazolin-4-yl}-7-(2-methyl-1H-benzimidazol-6-yl)-2,3,4,5-tetrahydro-1,4-benzoxazepine]
≤ 10 nM | Cc1nc2ccc(-c3ccc4c(c3)CN(c3ncnc(C)c3Cc3ccc(Cl)cc3)CCO4)cc2[nH]1 [Example 80, 4-{5-[(4-chlorophenyl)methyl]-6-methylpyrimidin-4-yl}-7-(2-methyl-1H-benzimidazol-6-yl)-2,3,4,5-tetrahydro-1,4-benzoxazepine]
250 to 1000 nM | COc1ccc2c(N3CCOc4ccc(-c5cnc6nc(C)[nH]c6c5)cc4C3)nc(CN(C)C)nc2c1 [Example 613, N,N-dimethyl-1-{4-[7-(2-methyl-1H-imidazo[4,5-b]pyridin-6-yl)-2,3-dihydro-1,4-benzoxazepin-4(5H)-yl]-7-(methyloxy)quinazolin-2-yl}methanamine]
10 to 50 nM | COc1ccc2c(N3CCOc4ccc(-c5cnc6nc(N)[nH]c6c5)cc4C3)nc(C)nc2c1 [Example 289, 6-{4-[2-methyl-7-(methyloxy)quinazolin-4-yl]-2,3,4,5-tetrahydro-1,4-benzoxazepin-7-yl}-1H-imidazo[4,5-b]pyridin-2-amine]
50 to 250 nM | CCNc1nc2ncc(-c3ccc4c(c3)CN(c3ccncn3)CCO4)cc2[nH]1 [Example 230, N-ethyl-6-(4-pyrimidin-4-yl-2,3,4,5-tetrahydro-1,4-benzoxazepin-7-yl)-1H-imidazo[4,5-b]pyridin-2-amine]
250 to 1000 nM | COc1ccc2c(N3CCOc4ccc(-c5cnc6sc(NC(C)=O)nc6c5)cc4C3)nc(CN(C)C)nc2c1 [Example 618, N-[6-(4-{2-[(dimethylamino)methyl]-7-(methyloxy)quinazolin-4-yl}-2,3,4,5-tetrahydro-1,4-benzoxazepin-7-yl)[1,3]thiazolo[5,4-b]pyridin-2-yl]acetamide]
10 to 50 nM | CN(C)Cc1nc2c(c(N3CCOc4ccc(-c5ccc6[nH]c(CF)nc6c5)cc4C3)n1)CC(C)(C)CC2 [Example 322]
≥ 2000 nM | COCc1nc2ccc(-c3ccc4c(c3)CN(c3ccnc5ccccc35)CCO4)cc2[nH]1 [Example 196, 7-{2-[(methyloxy)methyl]-1H-benzimidazol-6-yl}-4-quinolin-4-yl-2,3,4,5-tetrahydro-1,4-benzoxazepine]
250 to 1000 nM | COc1ccc2c(N3CCOc4ccc(-c5cnc6sc(N)nc6c5)cc4C3)nc(C)nc2c1 [Example 661, 6-{4-[2-methyl-7-(methyloxy)quinazolin-4-yl]-2,3,4,5-tetrahydro-1,4-benzoxazepin-7-yl}[1,3]thiazolo[5,4-b]pyridin-2-amine]
10 to 50 nM | CN(CCO)S(=O)(=O)c1cc(-c2ccc3c(c2)CN(c2ncnc4c2CC(C)(C)CC4)CCO3)cnc1N [Example 370, 2-amino-5-[4-(6,6-dimethyl-5,6,7,8-tetrahydroquinazolin-4-yl)-2,3,4,5-tetrahydro-1,4-benzoxazepin-7-yl]-N-(2-hydroxyethyl)-N-methylpyridine-3-sulfonamide]
250 to 1000 nM | Cc1nc(CN(C)C)nc(N2CCOc3ccc(-c4cnc5sc(N)nc5c4)cc3C2)c1Cl [Example 678, 6-(4-{5-chloro-2-[(dimethylamino)methyl]-6-methylpyrimidin-4-yl}-2,3,4,5-tetrahydro-1,4-benzoxazepin-7-yl)[1,3]thiazolo[5,4-b]pyridin-2-amine]
≥ 2000 nM | COC(=O)Nc1nc2ccc(-c3ccc4c(c3)CN(c3ccncn3)CCO4)cc2[nH]1 [Example 107, methyl-6[(4-pyrimidin-4-yl-2,3,4,5-tetrahydro-1,4-benzoxazepin-7-yl)-1H-benzimidazol-2-yl]carbamate]
50 to 250 nM | CC1(C)CCc2ncnc(N3CCOc4ccc(-c5cnc(N)c(S(=O)(=O)NCC6CCCNC6)c5)cc4C3)c2C1 (stereo not shown) [Example 377, 2-amino-5-[4-(6,6-dimethyl-5,6,7,8-tetrahydroquinazolin-4-yl)-2,3,4,5-tetrahydro-1,4-benzoxazepin-7-yl]-N-(piperidin-3-ylmethyl)pyridine-3-sulfonamide]
250 to 1000 nM | CCCOc1ccc2ncnc(N3CCOc4ccc(-c5ccc6nc(C)[nH]c6c5)cc4C3)c2c1 [Example 162, 7-(2-methyl-1H-benzimidazol-6-yl)-4-[6-(propyloxy)quinazolin-4-yl]-2,3,4,5-tetrahydro-1,4-benzoxazepine]
≤ 10 nM | Cc1nc2ncc(-c3ccc4c(c3)CN(c3nc(CNS(C)(=O)=O)nc5c3CC(C)(C)CC5)CCO4)cc2[nH]1 [Example 601, N-({6,6-dimethyl-4-[7-(2-methyl-1H-imidazo[4,5-b]pyridin-6-yl)-2,3-dihydro-1,4-benzoxazepin-4(5H)-yl]-5,6,7,8-tetrahydroquinazolin-2-yl)methyl)methanesulfonamide]
10 to 50 nM | Cc1nc2ccc(-c3ccc4c(c3)CN(c3ncnc(C)c3Cc3ccc(C(F)(F)F)cc3)CCO4)cc2[nH]1 [Example 90, 7-(2-methyl-1H-benzimidazol-6-yl)-4-(6-methyl-5-{[4-(trifluoromethyl)phenyl]methyl}pyrimidin-4-yl)-2,3,4,5-tetrahydro-1,4-benzoxazepine]
50 to 250 nM | CCCc1c(C)nc(CN(C)C)nc1N1CCOc2ccc(-c3cnc4sc(N)nc4c3)cc2C1 [Example 657, 6-(4-{2-[(dimethylamino)methyl]-6-methyl-5-propylpyrimidin-4-yl}-2,3,4,5-tetrahydro-1,4-benzoxazepin-7-yl)[1,3]thiazolo[5,4-b]pyridin-2-amine]
50 to 250 nM | C[C@H]1CCc2c(ncnc2N2CCOc3ccc(-c4cnc5nc(C6CC6)[nH]c5c4)cc3C2)C1 [Example 546, 7-(2-cyclopropyl-1H-imidazo[4,5-b]pyridin-6-yl)-4-[(7S)-7-methyl-5,6,7,8-tetrahydroquinazolin-4-yl]-2,3,4,5-tetrahydro-1,4-benzoxazepine]
1000 to 2000 nM | CC(C)c1nc2ccc(-c3ccc4c(c3)CN(c3ccnc5ccccc35)CCO4)cc2[nH]1 [Example 203, 7-[2-(1-methylethyl)-1H-benzimidazol-6-yl]-4-quinolin-4-yl-2,3,4,5-tetrahydro-1,4-benzoxazepine]
250 to 1000 nM | COc1cc2c(N3CCOc4ccc(-c5ccc6nc(C)[nH]c6c5)cc4C3)ncnc2cc1O [Example 157, 4-[7-(2-methyl-1H-benzimidazol-6-yl)-2,3-dihydro-1,4-benzoxazepin-4(5H)-yl]-6-(methyloxy)quinazolin-7-ol]
≤ 10 nM | Cc1nc2ncc(-c3ccc4c(c3)CN(c3nc(CNC5CCC5)nc5c3CC(C)(C)CC5)CCO4)cc2[nH]1 [Example 597, N-({6,6-dimethyl-4-[7-(2-methyl-1H-imidazo[4,5-b]pyridin-6-yl)-2,3-dihydro-1,4-benzoxazepin-4(5H)-yl]-5,6,7,8-tetrahydroquinazolin-2-yl}methyl)cyclobutanamine]
250 to 1000 nM | Cn1ccc2cc(-c3ccc4c(c3)CN(c3ccnc5ccccc35)CCO4)cnc21 [Example 222]
50 to 250 nM | CC1(C)CCc2ncnc(N3CCOc4ccc(-c5cnc(N)c(S(=O)(=O)O)c5)cc4C3)c2C1 [Example 400, 2-amino-5-[4-(6,6-dimethyl-5,6,7,8-tetrahydrquinazolin-4-yl)-2,3,4,5-tetrahydro-1,4-benzoxazepin-7-yl]pyridine-3-sulfonic acid]
250 to 1000 nM | COc1ccc2c(N3CCOc4ccc(-c5ccc6nc(C)[nH]c6c5)cc4C3)nc(C)nc2c1 [Example 258, 7-(2-methyl-1H-benzimidazol-6-yl)-4-[2-methyl-7-(methyloxy)quinoazolin-4-yl]-2,3,4,5-tetrahydro-1,4-benzoxazepine]
≤ 10 nM | Cc1nc2ncc(-c3ccc4c(c3)CN(c3nc(CNCCF)nc5c3CC(C)(C)CC5)CCO4)cc2[nH]1 [Example 593, N-({6,6-dimethyl-4-[7-(2-methyl-1H-imidazo[4,5-b]pyridin-6-yl)-2,3-dihydro-1,4-benzoxazepin-4(5H)-yl]-5,6,7,8-tetrahydroquinazolin-2-yl}methyl)-2-fluoroethanamine]

From patent US8648066B2 (Exelixis, Inc., priority 2009, dated 2014)
